# ChEMBL document CHEMBL1201862, “PubChem BioAssay data set” (2004)
#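 Grown in 96-well plates, cells were treated for 48 hours with each compound at five concentrations. Insufficient inhibition: endpoint recorded as highest concentration tested. GI50 marks 50% less growth.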 Active and inactive are the calls of the source. No stated cut-off is given here; in the data, active = GI50 up to about 1.1 µM and inactive = higher.
# Legend:
# Assay in all cases: NCI-60 cell line screen, 48 h
# [1] = system: K562
# [2] = system: M14
# [3] = system: PC-3
# [4] = system: HOP-62
# [5] = system: ACHN
# [6] = system: 786-0
# [7] = system: SNB-19
# [8] = system: UACC-257
# [9] = system: NCI-H460
# [10] = system: EKVX
# [11] = system: NCI/ADR-RES
# [12] = system: SK-OV-3
# [13] = system: NCI-H226
# [14] = system: SF-539
# [15] = system: UACC-62
# [16] = system: A498
# [17] = system: BT-549
# [18] = system: HOP-92
# [19] = system: MDA-MB-435
# [20] = system: U-251
# [21] = system: MOLT-4
# [22] = system: Malme-3M
# [23] = system: COLO 205
# [24] = system: RPMI-8226
# [25] = system: DU-145
# [26] = system: T47D
# [27] = system: OVCAR-5
# [28] = system: LOX IMVI
# [29] = system: SNB-75
# [30] = system: SK-MEL-28
# [31] = system: CCRF-CEM
# [32] = system: CAKI-1
# [33] = system: MCF7
# [34] = system: SK-MEL-5
# [35] = system: A549
# [36] = system: MDA-N
# [37] = system: IGROV-1
# [38] = system: NCI-H23
# [39] = system: KM12
# [40] = system: OVCAR-8
# [41] = system: HT-29
# [42] = system: SN12C
# [43] = system: SF-295
# [44] = system: SK-MEL-2
# [45] = system: SF-268
# [46] = system: OVCAR-3
# [47] = system: MDA-MB-231
# [48] = system: HCT-116
# [49] = system: NCI-H522
# [50] = system: SR
# [51] = system: OVCAR-4
# [52] = system: SW-620
# [53] = system: Hs-578T
# [54] = system: TK-10
# [55] = system: HCT-15
# [56] = system: HL-60
# [57] = system: RXF 393
# [58] = system: UO-31
smiles,measurement,setting,value
O=C(O)c1cscc1Cc1cccs1,GI50,[1],> 100 µM (inactive)
same,GI50,[2],> 100 µM (inactive)
same,GI50,[3],> 100 µM (inactive)
same,GI50,[4],> 100 µM (inactive)
same,GI50,[5],> 100 µM (inactive)
same,GI50,[6],> 100 µM (inactive)
same,GI50,[7],> 100 µM (inactive)
same,GI50,[8],> 100 µM (inactive)
same,GI50,[9],> 100 µM (inactive)
same,GI50,[10],> 100 µM (inactive)
same,GI50,[11],> 100 µM (inactive)
same,GI50,[12],> 100 µM (inactive)
same,GI50,[13],23.5 µM (inactive)
same,GI50,[14],> 100 µM (inactive)
same,GI50,[15],> 100 µM (inactive)
same,GI50,[16],> 100 µM (inactive)
same,GI50,[17],> 100 µM (inactive)
same,GI50,[18],> 100 µM (inactive)
same,GI50,[19],> 100 µM (inactive)
same,GI50,[20],> 100 µM (inactive)
same,GI50,[21],> 100 µM (inactive)
same,GI50,[22],> 100 µM (inactive)
same,GI50,[23],> 100 µM (inactive)
same,GI50,[24],> 100 µM (inactive)
same,GI50,[25],> 100 µM (inactive)
same,GI50,[26],> 100 µM (inactive)
same,GI50,[27],> 100 µM (inactive)
same,GI50,[28],> 100 µM (inactive)
same,GI50,[29],57.8 µM (inactive)
same,GI50,[30],> 100 µM (inactive)
same,GI50,[31],> 100 µM (inactive)
same,GI50,[32],> 100 µM (inactive)
same,GI50,[33],> 100 µM (inactive)
same,GI50,[34],> 100 µM (inactive)
same,GI50,[35],> 100 µM (inactive)
same,GI50,[36],> 100 µM (inactive)
same,GI50,[37],> 100 µM (inactive)
same,GI50,[38],> 100 µM (inactive)
same,GI50,[39],> 100 µM (inactive)
same,GI50,[40],> 100 µM (inactive)
same,GI50,[41],> 100 µM (inactive)
same,GI50,[42],> 100 µM (inactive)
same,GI50,[43],> 100 µM (inactive)
same,GI50,[44],> 100 µM (inactive)
same,GI50,[45],> 100 µM (inactive)
same,GI50,[46],> 100 µM (inactive)
same,GI50,[47],> 100 µM (inactive)
same,GI50,[48],> 100 µM (inactive)
same,GI50,[49],> 100 µM (inactive)
same,GI50,[50],> 100 µM (inactive)
same,GI50,[51],> 100 µM (inactive)
same,GI50,[52],> 100 µM (inactive)
same,GI50,[53],> 100 µM (inactive)
same,GI50,[54],> 100 µM (inactive)
same,GI50,[55],> 100 µM
same,GI50,[56],> 100 µM (inactive)
same,GI50,[57],> 100 µM (inactive)
OCCCNCc1ccncc1,GI50,[1],> 100 µM (inactive)
same,GI50,[2],> 100 µM (inactive)
same,GI50,[3],> 100 µM (inactive)
same,GI50,[4],> 100 µM (inactive)
same,GI50,[5],> 100 µM (inactive)
same,GI50,[6],> 100 µM (inactive)
same,GI50,[7],> 100 µM (inactive)
same,GI50,[9],> 100 µM (inactive)
same,GI50,[10],> 100 µM (inactive)
same,GI50,[11],> 100 µM (inactive)
same,GI50,[12],> 100 µM (inactive)
same,GI50,[13],> 100 µM (inactive)
same,GI50,[14],> 100 µM (inactive)
same,GI50,[15],> 100 µM (inactive)
same,GI50,[16],> 100 µM (inactive)
same,GI50,[17],> 100 µM (inactive)
same,GI50,[18],> 100 µM (inactive)
same,GI50,[19],> 100 µM (inactive)
same,GI50,[20],> 100 µM (inactive)
same,GI50,[21],> 100 µM (inactive)
same,GI50,[22],> 100 µM (inactive)
same,GI50,[23],> 100 µM (inactive)
same,GI50,[24],> 100 µM (inactive)
same,GI50,[25],> 100 µM (inactive)
same,GI50,[26],> 100 µM (inactive)
same,GI50,[27],> 100 µM (inactive)
same,GI50,[28],> 100 µM (inactive)
same,GI50,[29],> 100 µM (inactive)
same,GI50,[30],> 100 µM (inactive)
same,GI50,[31],> 100 µM (inactive)
same,GI50,[32],> 100 µM (inactive)
same,GI50,[33],> 100 µM (inactive)
same,GI50,[34],> 100 µM (inactive)
same,GI50,[58],> 100 µM (inactive)
same,GI50,[35],> 100 µM (inactive)
same,GI50,[36],> 100 µM (inactive)
same,GI50,[37],> 100 µM (inactive)
same,GI50,[38],> 100 µM (inactive)
same,GI50,[39],> 100 µM (inactive)
same,GI50,[40],> 100 µM (inactive)
same,GI50,[41],> 100 µM (inactive)
same,GI50,[42],> 100 µM (inactive)
same,GI50,[43],> 100 µM (inactive)
same,GI50,[44],> 100 µM (inactive)
same,GI50,[45],> 100 µM (inactive)
same,GI50,[46],> 100 µM (inactive)
same,GI50,[47],> 100 µM (inactive)
same,GI50,[48],> 100 µM (inactive)
same,GI50,[49],> 100 µM (inactive)
same,GI50,[50],> 100 µM (inactive)
same,GI50,[51],> 100 µM (inactive)
same,GI50,[52],> 100 µM (inactive)
same,GI50,[53],> 100 µM (inactive)
same,GI50,[54],> 100 µM (inactive)
same,GI50,[55],> 100 µM
same,GI50,[56],> 100 µM (inactive)
same,GI50,[57],> 100 µM (inactive)
COc1ccc(-c2nc(O)c3ccccc3n2)cc1,GI50,[1],> 100 µM (inactive)
same,GI50,[2],> 100 µM (inactive)
same,GI50,[3],> 100 µM (inactive)
same,GI50,[4],> 100 µM (inactive)
same,GI50,[5],> 10 µM (inactive)
same,GI50,[6],48.3 µM (inactive)
same,GI50,[7],> 100 µM (inactive)
same,GI50,[8],> 100 µM (inactive)
same,GI50,[10],> 100 µM (inactive)
same,GI50,[11],27.1 µM (inactive)
same,GI50,[12],> 100 µM (inactive)
same,GI50,[13],38.6 µM (inactive)
same,GI50,[14],45.9 µM (inactive)
same,GI50,[15],71.1 µM (inactive)
same,GI50,[16],47 µM (inactive)
same,GI50,[17],83.9 µM (inactive)
same,GI50,[18],> 100 µM (inactive)
same,GI50,[19],> 100 µM (inactive)
same,GI50,[20],24.8 µM (inactive)
same,GI50,[21],> 100 µM (inactive)
same,GI50,[22],> 100 µM (inactive)
same,GI50,[23],> 100 µM (inactive)
same,GI50,[24],> 100 µM (inactive)
same,GI50,[25],> 100 µM (inactive)
same,GI50,[26],84.5 µM (inactive)
same,GI50,[27],> 100 µM (inactive)
same,GI50,[28],39.8 µM (inactive)
same,GI50,[29],40.4 µM (inactive)
same,GI50,[30],43.6 µM (inactive)
same,GI50,[31],> 100 µM (inactive)
same,GI50,[32],76.6 µM (inactive)
same,GI50,[33],35.9 µM (inactive)
same,GI50,[34],> 100 µM (inactive)
same,GI50,[58],> 100 µM (inactive)
same,GI50,[35],> 100 µM (inactive)
same,GI50,[36],> 100 µM (inactive)
same,GI50,[37],29.1 µM (inactive)
same,GI50,[38],87.5 µM (inactive)
same,GI50,[39],> 100 µM (inactive)
same,GI50,[40],32.4 µM (inactive)
same,GI50,[41],> 100 µM (inactive)
same,GI50,[42],61.2 µM (inactive)
same,GI50,[43],> 100 µM (inactive)
same,GI50,[44],> 100 µM (inactive)
same,GI50,[45],> 100 µM (inactive)
same,GI50,[46],> 100 µM (inactive)
same,GI50,[47],40.8 µM (inactive)
same,GI50,[48],77.1 µM (inactive)
same,GI50,[49],52.7 µM (inactive)
same,GI50,[50],45.4 µM (inactive)
same,GI50,[51],26.9 µM (inactive)
same,GI50,[52],> 100 µM (inactive)
same,GI50,[53],2.44 µM (inactive)
same,GI50,[54],> 100 µM (inactive)
same,GI50,[55],43.1 µM
same,GI50,[56],> 100 µM (inactive)
same,GI50,[57],> 100 µM (inactive)
